Measured values from patent US8507464B2, “Phosphoramidate alkylator prodrugs” (Threshold Pharmaceuticals, Inc., priority 2005, dated 2013).
Where two headings read alike, the source gives them in different places.

Columns and labels:
[1] = format: physicochemical; details: glassy carbon, Ag/AgCl reference; for Reduction Potentials, 100 mV/sec: scan rate 100 mV/sec; for Reduction Potentials, 10,000 mV/sec: scan rate 10,000 mV/sec
NCI-H460 cells [2] = test: Antiproliferation assay (Alamar Blue), anoxia vs air
H460 cell line = test: Anti-proliferation assay, hypoxia vs normoxia (Table 1A); details: for IC50: Homo sapiens; for HCR P: ratio of IC50 in normoxia and hypoxia
[3] = tested on: mouse (MLM) liver microsomal proteins; format: in vitro ADME; details: Table 2B
human H460 cells = test: Clonogenic survival assay, hypoxia vs normoxia (Table 1A); details: for IC90: Homo sapiens
NCI-H460 cells [4] = test: Antiproliferation assay - oxygen dependence; format: cell-based, human
Source text: . […] The calculated IC50 values (μM) are tabulated in Table Y1 (H460 cells) or Table Y2 (HT29 cells) below.

[5] = Plasma stability (Table 2B); details: 30 min
NCI-H460 cells [6] = test: Clonogenic assay - oxygen dependence; details: Homo sapiens
in vivo = details: CD-1, mouse, 20 mg/kg
[7] = Homo sapiens, NCI-H460, 2 h, read-out: IC50 H460 Air, air, 2 h exposure
[8] = Homo sapiens, NCI-H460, 2 h, read-out: IC50 H460 Anoxia, anoxia, 2 h exposure
[9] = NCI-H460, read-out: Hypoxia P (proliferation IC50)
[10] = NCI-H460, read-out: Normoxia P (proliferation IC50)
[11] = Homo sapiens, NCI-H460, read-out: IC50 in H460 cells, 0.1% O2
[12] = Homo sapiens, NCI-H460, read-out: IC50 in H460 cells, 0.6% O2
[13] = Homo sapiens, NCI-H460, read-out: IC50 in H460 cells, 10% O2
[14] = Homo sapiens, NCI-H460; read-out: IC50 in H460 cells, Air
[15] = Homo sapiens, NCI-H460; read-out: IC50 in H460 cells, N2
[16] = Homo sapiens, NCI-H460, read-out: IC50 in H460 cells, Air
[17] = Homo sapiens, NCI-H460, read-out: IC50 in H460 cells, N2

Compound	IC50 (NCI-H460 cells [2]; [7])	IC50 (NCI-H460 cells [2]; [8])	IC50 (H460 cell line; [9])	IC50 (H460 cell line; [10])	HCR P (H460 cell line)	also measured
O=[N+]([O-])c1ncc[nH]1 [2-NO2-Imidazole, reference compound]						Reduction Potentials, 100 mV/sec [1]: −634 mV; Reduction Potentials, 10,000 mV/sec [1]: −693 mV
CC(OP(N)(=O)N(CCCl)CCCl)c1ncc([N+](=O)[O-])n1C (stereo not drawn) [Compound 2]	> 100 µM	8 µM	8 µM	> 100 µM	>12	
Cn1c([N+](=O)[O-])cnc1COc1ccc(COP(N)(=O)N(CCCl)CCCl)cc1F (stereo not drawn) [Compound 3]	> 100 µM	> 20 µM	> 20 µM	> 100 µM	>5	
CN(C)P(=O)(OCc1cnc([N+](=O)[O-])n1C)N(CCCl)CCCl (stereo not drawn) [Compound 4]	> 100 µM	40 µM	40 µM	> 100 µM	>2	
CN(CCCl)P(=O)(OCc1ccc([N+](=O)[O-])o1)N(C)CCCl [Compound 8]	0.6 µM	0.013 µM	0.01 µM	0.6 µM	60	
CN(CCCl)P(=O)(OCc1ncc([N+](=O)[O-])n1C)N(C)CCCl [Compound 9]	> 100 µM	> 10 µM	> 10 µM	> 100 µM	>10	
O=[N+]([O-])c1ccc(COP(=O)(N(CCCl)CCCl)N2CCCC2)o1 (stereo not drawn) [Compound 11]	> 100 µM	5.2 µM	5.2 µM	> 100 µM	>20	
O=[N+]([O-])c1ccc(COP(=O)(N(CCCl)CCCl)N2CCOCC2)o1 (stereo not drawn) [Compound 12]	> 100 µM	1.7 µM	1.7 µM	> 100 µM	>50	
CC(C)N(CCCl)P(=O)(OCc1cnc([N+](=O)[O-])n1C)N(CCCl)C(C)C [Compound 14]	> 100 µM	8.5 µM	8.5 µM	> 100 µM	>12	
CCN(CCCl)P(=O)(OCc1cnc([N+](=O)[O-])n1C)N(CC)CCCl [Compound 15]	1 µM	0.08 µM	0.08 µM	1 µM	12	
Cn1c(COP2(=O)N(CCCl)CCCN2CCCl)cnc1[N+](=O)[O-] [Compound 16]	> 100 µM	1.6 µM	1.6 µM	100 µM	60	Metabolic stability (MLM) (% at 30 min) [3]: 40%; IC90 (human H460 cells; NCI-H460, read-out: Hypoxia C (clonogenic IC90)): 0.2 µM; IC90 (human H460 cells; NCI-H460, read-out: Normoxia C (clonogenic IC90)): 35 µM; HCR C (human H460 cells; ratio of IC90 in normoxia and hypoxia): 175; IC50 (NCI-H460 cells [4]; [11]): 10 µM; IC50 (NCI-H460 cells [4]; [12]): 10 µM; IC50 (NCI-H460 cells [4]; [13]): 100 µM; IC50 (NCI-H460 cells [4]; [14]): > 100 µM; IC50 (NCI-H460 cells [4]; [15]): 0.3 µM
CN(CCCl)P(=O)(OCc1c(F)c(F)c(OCc2ncc([N+](=O)[O-])n2C)c(F)c1F)N(C)CCCl [Compound 17]	9 µM	1 µM	1 µM	9 µM	9	
COc1cc(COP(=O)(N(C)CCCl)N(C)CCCl)ccc1OCc1cnc([N+](=O)[O-])n1C [Compound 18]	9 µM	3.4 µM	3.4 µM	9 µM	3	
Cn1c(COc2ccc(COP(N)(=O)N(CCCl)CCCl)cc2F)cnc1[N+](=O)[O-] (stereo not drawn) [Compound 22]	16 µM	0.7 µM	0.7 µM	16 µM	23	
O=[N+]([O-])c1ccc(COP(=O)(NCCCl)NCCCl)s1 [Compound 26]	35 µM	0.1 µM	0.1 µM	35 µM	350	Metabolic stability (MLM) (% at 30 min) [3]: 56%; IC50 (NCI-H460 cells [4]; [11]): 3 µM; IC50 (NCI-H460 cells [4]; [12]): 6 µM; IC50 (NCI-H460 cells [4]; Homo sapiens, NCI-H460, read-out: IC50 in H460 cells, 1% O2): 5 µM; IC50 (NCI-H460 cells [4]; [13]): 10 µM; IC50 (NCI-H460 cells [4]; [16]): 40 µM; IC50 (NCI-H460 cells [4]; [17]): 0.3 µM; Plasma stability (% at 30 min) [5]: 85%
Cn1c(COc2ccc(COP(=O)(NCCCl)NCCCl)cc2F)cnc1[N+](=O)[O-] [Compound 27]	100 µM		2.5 µM	100 µM	40	
O=[N+]([O-])c1ccc(COCOP(=O)(NCCCl)NCCCl)o1 [Compound 31]	> 100 µM	83 µM	83 µM	> 100 µM	>1	
Cn1c(COP(=O)(NCCCl)NCCCl)nc(Br)c1[N+](=O)[O-] [Compound 32]	100 µM	50 µM	50 µM	100 µM	2	
C[C@H](CCl)NP(=O)(N[C@H](C)CCl)OCc1cnc([N+](=O)[O-])n1C [Compound 37]	> 100 µM	0.36 µM				IC90 (NCI-H460 cells [6]; NCI-H460, read-out: IC90 H460 0.6% O2): 5 µM; IC90 (NCI-H460 cells [6]; NCI-H460, read-out: IC90 H460 Air): 90 µM; IC90 (NCI-H460 cells [6]; NCI-H460, read-out: IC90 H460 N2): 0.2 µM; IC50 (NCI-H460 cells [4]; [12]): 25 µM; IC50 (NCI-H460 cells [4]; [14]): > 100 µM; IC50 (NCI-H460 cells [4]; [15]): 0.5 µM; AUC (in vivo; ip): 196 µg·h/mL; Cmax (in vivo; ip): 12600 ng/mL; Tmax (in vivo; ip): 2 min; half-life (in vivo; ip): 23.2 min; AUC (in vivo; iv): 172 µg·h/mL; Cmax (in vivo; iv): 15000 ng/mL; Tmax (in vivo; iv): 2 min; half-life (in vivo; iv): 9 min
CC(OP(=O)(NCCBr)NCCBr)c1ccc([N+](=O)[O-])cc1 (stereo not drawn) [Compound 78]	> 100 µM	> 100 µM				Reduction Potentials, 100 mV/sec [1]: −704 mV; Reduction Potentials, 10,000 mV/sec [1]: −746 mV
CC(OP(=O)(NCCBr)NCCBr)c1ccc([N+](=O)[O-])s1 (stereo not drawn) [Compound 88]	0.53 µM	0.03 µM				Reduction Potentials, 100 mV/sec [1]: −559 mV; Reduction Potentials, 10,000 mV/sec [1]: −629 mV; IC50 (NCI-H460 cells [4]; Homo sapiens, NCI-H460, read-out: IC50 in H460 cells, 0.3% O2): 0.5 µM; IC50 (NCI-H460 cells [4]; [12]): 0.2 µM; IC50 (NCI-H460 cells [4]; [16]): 0.5 µM; IC50 (NCI-H460 cells [4]; [17]): 0.03 µM
Cc1csc(C(C)OP(=O)(NCCBr)NCCBr)c1[N+](=O)[O-] (stereo not drawn) [Compound 103]						Reduction Potentials, 10,000 mV/sec [1]: −756 mV; IC50 (NCI-H460 cells [2]; read-out: IC50 H460 Air, air, 2 h exposure): 2 µM; IC50 (NCI-H460 cells [2]; read-out: IC50 H460 Anoxia, anoxia, 2 h exposure): 0.02 µM
Cn1c(COP2(=O)N(CCBr)CCN2CCBr)cnc1[N+](=O)[O-] [Compound 108]	> 100 µM	1.1 µM				Reduction Potentials, 100 mV/sec [1]: −614 mV; Reduction Potentials, 10,000 mV/sec [1]: −593 mV; IC50 (NCI-H460 cells [4]; [12]): > 100 µM; IC50 (NCI-H460 cells [4]; [16]): > 100 µM; IC50 (NCI-H460 cells [4]; [17]): 1 µM
Cn1c([N+](=O)[O-])cnc1COc1ccc(COP(N)(=O)N(CCCl)CCCl)cc1 (stereo not drawn) [Compound S1]			> 40 µM	> 100 µM	>3	
Cn1c(COP2(=O)N(CCCl)CCN2CCCl)cnc1[N+](=O)[O-] [Compound S2]			7 µM	> 100 µM	>14	
